Reference: US20250122191A1, “COMPOUNDS AS BCL-2 INHIBITORS” (Fochon Biosciences, Ltd, priority 2021, published 2025)

Tests used:
RS4;11-BCL-2 G101V cells = experiment: Cell proliferation assay (MTS), RS4;11-BCL-2 G101V engineered cells; format: cell-based; settings: Homo sapiens, 120 h, read-out: RS4, 11 BCL2-G101V IC50
Procedure, shortened: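 Cells were plated, allowed to settle 4 h (G101V, F104L) or 24 h (D103E, D103Y), and treated with serially diluted compound (10000 down to 1.5 nM). After 120 h or 72 h respectively at 37 °C, MTS was added for 2 h and absorbance at 490 nm gave IC50 values.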

RS4;11-BCL-2 D103E cells = experiment: Cell proliferation assay (MTS), RS4;11-BCL-2 D103E engineered cells; format: cell-based; settings: Homo sapiens, 72 h, read-out: RS4, 11 BCL2-D103E IC50
Description: MTS testing kit was purchased from Promega (Madison, WI, USA). The RPMI-1640, Fetal bovine serum and Penicillin-Streptomycin were purchased from BI (Biological Industries, Beit Haemek, Israel). Puromycin was purchased from Beyotime (shanghai, China). Dimethyl sulfoxide (DMSO) was purchased from Sigma (St. Louis., MO, USA). RS4;11-BCL-2 G101V (Cobioer Lot. #: CBD2021063013P4), RS4;11-BCL-2 D103E (Cobioer Lot. #: CBD2021063013P4), RS4;11-BCL-2 D103Y (Cobioer Lot. #: CBD2022012101P4) and RS4;11-BCL-2 F104L (Cobioer Lot. #: CBD2021063014P4) cells were cultured in RPMI1640 supplemented with 1 ug/mL puromycin, 100 U/mL Penicillin-Streptomycin and 10% FBS.
To investigate whether a compound is able to inhibit the activity of BCL-2 mutation in cells, a mechanism-based assay using engineered cell lines stably overexpressing BCL-2 mutation (RS4;11-BCL-2 G101V, RS4;11-BCL-2 D103E, RS4;11-BCL-2 D103Y, and RS4;11-BCL-2 F104L) was developed. In this assay, the inhibition of BCL-2 mutation was reflected by the inhibition of cell proliferation of engineered RS4;11 cells. Cells were plated into 96-well plates at optimized cell density (RS4;11-BCL-2 G101V: 5000 cells/well; RS4;11-BCL-2 D103E: 7500 cells/well; RS4;11-BCL-2 D103Y: 7500 cells/well; RS4;11-BCL-2 F104L: 5000 cells/well). Plates were incubated at 37° C., with 5% CO2 for 4 h (RS4;11-BCL-2 G101V, RS4;11-BCL-2 F104L) and 24 h (RS4;11-BCL-2 D103E, RS4;11-BCL-2 D103Y), respectively. Compounds were serially diluted and added to the plates with the final concentrations of 10000, 3333.3, 1111.1, 370.4, 123.5, 41.2, 13.7, 4.6 and 1.5 nM. Plates were incubated at 37° C., with 5% CO2 for 120 h (RS4; 11-BCL-2 G101V, RS4; 11-BCL-2 F104L) and 72 h (RS4;11-BCL-2 D103E, RS4;11-BCL-2 D103Y), respectively. 20 μl MTS was added into each well and the plates were incubated at 37° C., with 5% CO2 exactly for 2 h. The absorbance was measured by a microplate reader at 490 nm. IC50 values were calculated using GraphPad Prism 8.0 software.

| SMILES | IC50 (RS4;11-BCL-2 G101V cells) [nM] | IC50 (RS4;11-BCL-2 D103E cells) [nM] |
| --- | --- | --- |
| COc1cc(CN2CCN(C3CC4(CCN(c5ccc(C(=O)NS(=O)(=O)c6cnc(NC[C@H]7CC[C@](C)(O)CC7)c([N+](=O)[O-])c6)c(Oc6cc7c(F)c[nH]c7nc6OC)c5)CC4)C3)[C@H](c3ccccc3C(C)C)C2)cnc1OC [Example 123, 4-(2-((R)-4-((5,6-dimethoxypyridin-3-yl)methyl)-2-(2-isopropylphenyl)piperazin-1-yl)-7-azaspiro[3.5]nonan-7-yl)-2-((3-fluoro-6-methoxy-1H-pyrrolo[2,3-b]pyridin-5-yl)oxy)-N-((6-((((1r,4r)-4-hydroxy-4-methylcyclohexyl)methyl)amino)-5-nitropyridin-3-yl)sulfonyl)benzamide] | 1 | 1 |
| CC(C)c1ccccc1[C@@H]1CN(C(C)C)CCN1C1CC2(CCN(c3ccc(C(=O)NS(=O)(=O)c4cnc(NC[C@H]5CC[C@](C)(O)CC5)c([N+](=O)[O-])c4)c(Oc4cnc5[nH]cc(F)c5c4)c3)CC2)C1 [Example 185, 2-((3-fluoro-1H-pyrrolo[2,3-b]pyridin-5-yl)oxy)-N-((6-((((1r,4r)-4-hydroxy-4-methylcyclohexyl)methyl)amino)-5-nitropyridin-3-yl)sulfonyl)-4-(2-((R)-4-isopropyl-2-(2-isopropylphenyl)piperazin-1-yl)-7-azaspiro[3.5]nonan-7-yl)benzamide] | 1 | 1 |
| COc1nc2[nH]cc(F)c2cc1Oc1cc(N2CCC3(CC2)CC(N2CCN(Cc4ccnc(O)c4)C[C@H]2c2ccccc2C(C)C)C3)ccc1C(=O)NS(=O)(=O)c1cnc(NC[C@H]2CC[C@](C)(O)CC2)c([N+](=O)[O-])c1 [Example 199, 2-((3-fluoro-6-methoxy-1H-pyrrolo[2,3-b]pyridin-5-yl)oxy)-N-((6-((((1r,4r)-4-hydroxy-4-methylcyclohexyl)methyl)amino)-5-nitropyridin-3-yl)sulfonyl)-4-(2-((R)-4-((2-hydroxypyridin-4-yl)methyl)-2-(2-isopropylphenyl)piperazin-1-yl)-7-azaspiro[3.5]nonan-7-yl)benzamide] | – | 1 |
| CCOc1nc2[nH]cc(F)c2cc1Oc1cc(N2CCC3(CC2)CC(N2CCN(Cc4cnc(C5CC5)c(OC)c4)C[C@H]2c2ccccc2C(C)C)C3)ccc1C(=O)NS(=O)(=O)c1cnc(NC[C@H]2CC[C@](C)(O)CC2)c([N+](=O)[O-])c1 [Example 253, 4-(2-((R)-4-((6-cyclopropyl-5-methoxypyridin-3-yl)methyl)-2-(2-isopropylphenyl)piperazin-1-yl)-7-azaspiro[3.5]nonan-7-yl)-2-((6-ethoxy-3-fluoro-1H-pyrrolo[2,3-b]pyridin-5-yl)oxy)-N-((6-((((1r,4r)-4-hydroxy-4-methylcyclohexyl)methyl)amino)-5-nitropyridin-3-yl)sulfonyl)benzamide] | 1 | 3 |
| COc1cc(CN2CCN(C3CC4(CCN(c5ccc(C(=O)NS(=O)(=O)c6cnc(NC[C@H]7CC[C@](C)(O)CC7)c([N+](=O)[O-])c6)c(Oc6cnc7[nH]cc(F)c7c6)c5)CC4)C3)[C@H](c3ccccc3C(C)C)C2)cnc1OC [Example 259, 4-(2-((R)-4-((5,6-dimethoxypyridin-3-yl)methyl)-2-(2-isopropylphenyl)piperazin-1-yl)-7-azaspiro[3.5]nonan-7-yl)-2-((3-fluoro-1H-pyrrolo[2,3-b]pyridin-5-yl)oxy)-N-((6-((((1r,4r)-4-hydroxy-4-methylcyclohexyl)methyl)amino)-5-nitropyridin-3-yl)sulfonyl)benzamide] | 1 | 1 |
| COc1cc(CN2CCN(C3CC4(CCN(c5ccc(C(=O)NS(=O)(=O)c6cnc(OC[C@H]7CC[C@](C)(O)CC7)c([N+](=O)[O-])c6)c(Oc6cc7c(F)c[nH]c7nc6OC)c5)CC4)C3)[C@H](c3ccccc3C(C)C)C2)ccn1 [Example 261, 2-((3-fluoro-6-methoxy-1H-pyrrolo[2,3-b]pyridin-5-yl)oxy)-N-((6-(((1r,4r)-4-hydroxy-4-methylcyclohexyl)methoxy)-5-nitropyridin-3-yl)sulfonyl)-4-(2-((R)-2-(2-isopropylphenyl)-4-((2-methoxypyridin-4-yl)methyl)piperazin-1-yl)-7-azaspiro [3.5]nonan-7-yl)benzamide] | – | 2 |
| CC(C)c1ccccc1[C@@H]1CN(CC2CCOCC2)CCN1C1CC2(CCN(c3ccc(C(=O)NS(=O)(=O)c4cnc(NC[C@H]5CC[C@](C)(O)CC5)c([N+](=O)[O-])c4)c(Oc4cnc5[nH]cc(F)c5c4)c3)CC2)C1 [Example 318, 2-((3-fluoro-1H-pyrrolo[2,3-b]pyridin-5-yl)oxy)-N-((6-((((1r,4r)-4-hydroxy-4-methylcyclohexyl)methyl)amino)-5-nitropyridin-3-yl)sulfonyl)-4-(2-((R)-2-(2-isopropylphenyl)-4-((tetrahydro-2H-pyran-4-yl)methyl)piperazin-1-yl)-7-azaspiro[3.5]nonan-7-yl)benzamide] | 1 | 1 |
| CC(C)c1ccccc1[C@@H]1CN(C2CCOCC2)CCN1C1CC2(CCN(c3ccc(C(=O)NS(=O)(=O)c4cnc(NC[C@H]5CC[C@](C)(O)CC5)c([N+](=O)[O-])c4)c(Oc4cnc5[nH]cc(F)c5c4)c3)CC2)C1 [Example 320, 2-((3-fluoro-1H-pyrrolo[2,3-b]pyridin-5-yl)oxy)-N-((6-((((1r,4r)-4-hydroxy-4-methylcyclohexyl)methyl)amino)-5-nitropyridin-3-yl)sulfonyl)-4-(2-((R)-2-(2-isopropylphenyl)-4-(tetrahydro-2H-pyran-4-yl)piperazin-1-yl)-7-azaspiro[3.5]nonan-7-yl)benzamide] | 1 | 1 |
| COc1nc2[nH]cc(F)c2cc1Oc1cc(N2CCC3(CC2)CC(N2CCN(C4CCC(OC)CC4)C[C@H]2c2ccccc2C(C)C)C3)ccc1C(=O)NS(=O)(=O)c1cnc(NC[C@H]2CC[C@](C)(O)CC2)c([N+](=O)[O-])c1 (stereo partly drawn) [Example 325, 2-((3-fluoro-6-methoxy-1H-pyrrolo[2,3-b]pyridin-5-yl)oxy)-N-((6-((((1r,4r)-4-hydroxy-4-methylcyclohexyl)methyl)amino)-5-nitropyridin-3-yl)sulfonyl)-4-(2-((R)-2-(2-isopropylphenyl)-4-(4-methoxycyclohexyl)piperazin-1-yl)-7-azaspiro[3.5]nonan-7-yl)benzamide] | 1 | 1 |
| COC1CCC(N2CCN(C3CC4(CCN(c5ccc(C(=O)NS(=O)(=O)c6cnc(NC[C@H]7CC[C@](C)(O)CC7)c([N+](=O)[O-])c6)c(Oc6cnc7[nH]cc(F)c7c6)c5)CC4)C3)[C@H](c3ccccc3C(C)C)C2)CC1 (stereo partly drawn) [Example 326, 2-((3-fluoro-1H-pyrrolo[2,3-b]pyridin-5-yl)oxy)-N-((6-((((1r,4r)-4-hydroxy-4-methylcyclohexyl)methyl)amino)-5-nitropyridin-3-yl)sulfonyl)-4-(2-((R)-2-(2-isopropylphenyl)-4-(4-methoxycyclohexyl)piperazin-1-yl)-7-azaspiro[3.5]nonan-7-yl)benzamide] | – | 1 |
